{"source": "patent US12508261B2", "about": "“Methods of treating depression with vortioxetine” (Rundle Research LLC, priority 2017, dated 2025)", "key": {"[1]": {"test": "Regression model estimating vortioxetine half-life and MAOI delay from total body fat and steady-state plasma concentration (CYP2D6 metabolizer status)", "set-up": "species or system human", "description": "Data obtained in the study described in Example 1 and Table 1 provided the basis for a regression model (having a r^2 value of 88%) based on total body fat and steady-state vortioxetine plasma concentration. Because the steady-state plasma concentration of vortioxetine correlates with metabolizer status, this regression provides a means of estimating vortioxetine half-life for patients based on total body fat and CYP2D6 metabolizer status.\nAlternatively, the delay period can be calculated based on any particular values in Table 1, or any statistical parameter for characterizing the subject population of Table, such as the arithmetic mean, geometric mean, maximum, minimum, maximum or minimum 90% confidence interval, etc. of the half-life (e.g., 7.5×the average t1/2, 7.5×the maximum t1/2, and so forth, or the 21 day equivalency to a normal weight extensive metabolizer subject, based on the average t1/2 or the maximum t1/2 or any of the aforementioned statistically parameters)."}, "[2]": {"conditions": "TRINTELLIX label; cited from earlier work"}, "[3]": {"conditions": "IM(c) average of intermediate metabolizer values, total fat 100 kg"}, "[4]": {"conditions": "IM(d) high of IM values, total fat 10 kg"}, "[5]": {"conditions": "IM(d) high of IM values, total fat 20 kg"}, "[6]": {"conditions": "IM(d) high of IM values, total fat 30 kg"}, "[7]": {"conditions": "IM(d) high of IM values, total fat 40 kg"}, "[8]": {"conditions": "IM(d) high of IM values, total fat 50 kg"}, "[9]": {"conditions": "IM(d) high of IM values, total fat 60 kg"}, "[10]": {"conditions": "IM(d) high of IM values, total fat 70 kg"}, "[11]": {"conditions": "IM(d) high of IM values, total fat 80 kg"}, "[12]": {"conditions": "IM(d) high of IM values, total fat 90 kg"}, "[13]": {"conditions": "IM(d) high of IM values, total fat 100 kg"}, "[14]": {"conditions": "PM(e) estimated poor metabolizer values, total fat 10 kg"}, "[15]": {"conditions": "PM(e) estimated poor metabolizer values, total fat 20 kg"}, "[16]": {"conditions": "PM(e) estimated poor metabolizer values, total fat 30 kg"}, "[17]": {"conditions": "PM(e) estimated poor metabolizer values, total fat 40 kg"}, "[18]": {"conditions": "PM(e) estimated poor metabolizer values, total fat 50 kg"}, "[19]": {"conditions": "PM(e) estimated poor metabolizer values, total fat 60 kg"}, "[20]": {"conditions": "PM(e) estimated poor metabolizer values, total fat 70 kg"}, "[21]": {"conditions": "PM(e) estimated poor metabolizer values, total fat 80 kg"}, "[22]": {"conditions": "PM(e) estimated poor metabolizer values, total fat 90 kg"}, "[23]": {"conditions": "PM(e) estimated poor metabolizer values, total fat 100 kg"}}}
{"smiles": "Cc1ccc(Sc2ccccc2N2CCNCC2)c(C)c1", "note": "[vortioxetine]", "values": [{"measurement": "Half-Life Estimates", "setting": "[1]; [3]", "value": 194, "unit": "h"}, {"measurement": "Weeks of Delay (7.5 X half-life)", "setting": "[1]; [3]", "value": 8.7, "unit": "Weeks"}, {"measurement": "Half-Life Estimates", "setting": "[1]; [4]", "value": 116, "unit": "h"}, {"measurement": "Weeks of Delay (7.5 X half-life)", "setting": "[1]; [4]", "value": 5.2, "unit": "Weeks"}, {"measurement": "Weeks of Delay (21 day equivalency to Normal, 66 hr half-life)", "setting": "[1]; [4]", "value": 5.3, "unit": "Weeks"}, {"measurement": "Half-Life Estimates", "setting": "[1]; [5]", "value": 126, "unit": "h"}, {"measurement": "Weeks of Delay (7.5 X half-life)", "setting": "[1]; [5]", "value": 5.6, "unit": "Weeks"}, {"measurement": "Weeks of Delay (21 day equivalency to Normal, 66 hr half-life)", "setting": "[1]; [5]", "value": 5.7, "unit": "Weeks"}, {"measurement": "Half-Life Estimates", "setting": "[1]; [6]", "value": 136, "unit": "h"}, {"measurement": "Weeks of Delay (7.5 X half-life)", "setting": "[1]; [6]", "value": 6.1, "unit": "Weeks"}, {"measurement": "Weeks of Delay (21 day equivalency to Normal, 66 hr half-life)", "setting": "[1]; [6]", "value": 6.2, "unit": "Weeks"}, {"measurement": "Half-Life Estimates", "setting": "[1]; [7]", "value": 147, "unit": "h"}, {"measurement": "Weeks of Delay (7.5 X half-life)", "setting": "[1]; [7]", "value": 6.5, "unit": "Weeks"}, {"measurement": "Weeks of Delay (21 day equivalency to Normal, 66 hr half-life)", "setting": "[1]; [7]", "value": 6.7, "unit": "Weeks"}, {"measurement": "Half-Life Estimates", "setting": "[1]; [8]", "value": 157, "unit": "h"}, {"measurement": "Weeks of Delay (7.5 X half-life)", "setting": "[1]; [8]", "value": 7.0, "unit": "Weeks"}, {"measurement": "Weeks of Delay (21 day equivalency to Normal, 66 hr half-life)", "setting": "[1]; [8]", "value": 7.1, "unit": "Weeks"}, {"measurement": "Half-Life Estimates", "setting": "[1]; [9]", "value": 167, "unit": "h"}, {"measurement": "Weeks of Delay (7.5 X half-life)", "setting": "[1]; [9]", "value": 7.5, "unit": "Weeks"}, {"measurement": "Weeks of Delay (21 day equivalency to Normal, 66 hr half-life)", "setting": "[1]; [9]", "value": 7.6, "unit": "Weeks"}, {"measurement": "Half-Life Estimates", "setting": "[1]; [10]", "value": 177, "unit": "h"}, {"measurement": "Weeks of Delay (7.5 X half-life)", "setting": "[1]; [10]", "value": 7.9, "unit": "Weeks"}, {"measurement": "Half-Life Estimates", "setting": "[1]; [11]", "value": 188, "unit": "h"}, {"measurement": "Weeks of Delay (7.5 X half-life)", "setting": "[1]; [11]", "value": 8.4, "unit": "Weeks"}, {"measurement": "Half-Life Estimates", "setting": "[1]; [12]", "value": 198, "unit": "h"}, {"measurement": "Weeks of Delay (7.5 X half-life)", "setting": "[1]; [12]", "value": 8.8, "unit": "Weeks"}, {"measurement": "Weeks of Delay (21 day equivalency to Normal, 66 hr half-life)", "setting": "[1]; [12]", "value": 9.0, "unit": "Weeks"}, {"measurement": "Half-Life Estimates", "setting": "[1]; [13]", "value": 208, "unit": "h"}, {"measurement": "Weeks of Delay (7.5 X half-life)", "setting": "[1]; [13]", "value": 9.3, "unit": "Weeks"}, {"measurement": "Weeks of Delay (21 day equivalency to Normal, 66 hr half-life)", "setting": "[1]; [13]", "value": 9.5, "unit": "Weeks"}, {"measurement": "Half-Life Estimates", "setting": "[1]; [14]", "value": 215, "unit": "h"}, {"measurement": "Weeks of Delay (7.5 X half-life)", "setting": "[1]; [14]", "value": 9.6, "unit": "Weeks"}, {"measurement": "Half-Life Estimates", "setting": "[1]; [15]", "value": 225, "unit": "h"}, {"measurement": "Weeks of Delay (7.5 X half-life)", "setting": "[1]; [15]", "value": 10.0, "unit": "Weeks"}, {"measurement": "Half-Life Estimates", "setting": "[1]; [16]", "value": 235, "unit": "h"}, {"measurement": "Weeks of Delay (7.5 X half-life)", "setting": "[1]; [16]", "value": 10.5, "unit": "Weeks"}, {"measurement": "Half-Life Estimates", "setting": "[1]; [17]", "value": 245, "unit": "h"}, {"measurement": "Weeks of Delay (7.5 X half-life)", "setting": "[1]; [17]", "value": 11.0, "unit": "Weeks"}, {"measurement": "Half-Life Estimates", "setting": "[1]; [18]", "value": 256, "unit": "h"}, {"measurement": "Weeks of Delay (7.5 X half-life)", "setting": "[1]; [18]", "value": 11.4, "unit": "Weeks"}, {"measurement": "Half-Life Estimates", "setting": "[1]; [19]", "value": 266, "unit": "h"}, {"measurement": "Weeks of Delay (7.5 X half-life)", "setting": "[1]; [19]", "value": 11.9, "unit": "Weeks"}, {"measurement": "Half-Life Estimates", "setting": "[1]; [20]", "value": 276, "unit": "h"}, {"measurement": "Weeks of Delay (7.5 X half-life)", "setting": "[1]; [20]", "value": 12.3, "unit": "Weeks"}, {"measurement": "Half-Life Estimates", "setting": "[1]; [21]", "value": 286, "unit": "h"}, {"measurement": "Weeks of Delay (7.5 X half-life)", "setting": "[1]; [21]", "value": 12.8, "unit": "Weeks"}, {"measurement": "Half-Life Estimates", "setting": "[1]; [22]", "value": 297, "unit": "h"}, {"measurement": "Weeks of Delay (7.5 X half-life)", "setting": "[1]; [22]", "value": 13.2, "unit": "Weeks"}, {"measurement": "Half-Life Estimates", "setting": "[1]; [23]", "value": 307, "unit": "h"}, {"measurement": "Weeks of Delay (7.5 X half-life)", "setting": "[1]; [23]", "value": 13.7, "unit": "Weeks"}, {"measurement": "time to achieve steady-state plasma concentrations", "setting": "[2]", "value": "≤ 2", "unit": "weeks"}]}
